How the values were obtained:
Format in all cases: biochemical
Rat intestinal sucrase = target: T1, Rat intestinal sucrase (Rattus norvegicus, UniProt P23739); assay: enzyme inhibition assay; details: read-out: IC50 ^a / MON-6d-DGJ
T1 construct: gene Si; native rat intestinal enzyme; sucrase (C-terminal) subunit of sucrase-isomaltase
From the text: enzyme inhibition assay on Rat intestinal sucrase

Mouse ER α-glucosidase I = target: T2, Mouse ER α-glucosidase I (Mus musculus, UniProt Q80UM7); assay: enzyme inhibition assay, purified enzyme; details: read-out: IC50 ^a / MON-6d-DGJ
T2 construct: gene Mogs
T2 sequence (Q80UM7 1-834): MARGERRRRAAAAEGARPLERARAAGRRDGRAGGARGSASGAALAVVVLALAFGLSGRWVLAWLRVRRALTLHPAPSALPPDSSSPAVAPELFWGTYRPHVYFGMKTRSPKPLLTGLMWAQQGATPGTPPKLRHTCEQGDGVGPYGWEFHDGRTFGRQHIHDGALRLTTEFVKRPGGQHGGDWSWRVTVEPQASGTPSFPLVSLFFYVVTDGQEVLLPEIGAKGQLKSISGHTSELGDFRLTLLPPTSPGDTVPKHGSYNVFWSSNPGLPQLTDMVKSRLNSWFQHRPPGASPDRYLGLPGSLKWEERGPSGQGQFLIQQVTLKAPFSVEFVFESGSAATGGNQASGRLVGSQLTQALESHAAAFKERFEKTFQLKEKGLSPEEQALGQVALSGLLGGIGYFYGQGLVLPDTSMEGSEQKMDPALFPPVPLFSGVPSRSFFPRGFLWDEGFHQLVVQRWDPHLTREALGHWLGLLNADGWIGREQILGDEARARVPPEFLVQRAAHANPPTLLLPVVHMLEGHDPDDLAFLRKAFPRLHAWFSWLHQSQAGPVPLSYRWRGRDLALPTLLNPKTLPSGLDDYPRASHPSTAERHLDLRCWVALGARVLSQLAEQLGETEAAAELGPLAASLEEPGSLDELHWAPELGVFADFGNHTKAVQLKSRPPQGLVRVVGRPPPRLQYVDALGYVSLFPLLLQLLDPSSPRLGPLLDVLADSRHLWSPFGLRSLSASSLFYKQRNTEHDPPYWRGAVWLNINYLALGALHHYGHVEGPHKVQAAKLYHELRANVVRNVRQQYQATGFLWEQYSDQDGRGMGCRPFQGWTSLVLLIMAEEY
From the text: enzyme inhibition assay, purified enzyme on Mouse ER α-glucosidase I

Rat intestinal maltase = target: T3, Rat intestinal maltase; assay: enzyme inhibition assay; details: IC50 not reached up to maximal dose; read-out: IC50 ^a / MON-6d-DGJ
T3 construct: gene Mgam; native rat intestinal enzyme activity; maltase may be maltase-glucoamylase and/or sucrase-isomaltase
From the text: enzyme inhibition assay on Rat intestinal maltase

[1] = target: T4, ceramide glucosyltransferase (HL60 glucosyltransferase) (Homo sapiens, UniProt Q16739); assay: enzyme inhibition assay, enzyme isolated from HL60 cells; details: read-out: IC50 ^a / MON-6d-DGJ
T4 construct: gene UGCG; native enzyme isolated from human promyelocytic HL60 cells
T4 sequence (Q16739 1-394): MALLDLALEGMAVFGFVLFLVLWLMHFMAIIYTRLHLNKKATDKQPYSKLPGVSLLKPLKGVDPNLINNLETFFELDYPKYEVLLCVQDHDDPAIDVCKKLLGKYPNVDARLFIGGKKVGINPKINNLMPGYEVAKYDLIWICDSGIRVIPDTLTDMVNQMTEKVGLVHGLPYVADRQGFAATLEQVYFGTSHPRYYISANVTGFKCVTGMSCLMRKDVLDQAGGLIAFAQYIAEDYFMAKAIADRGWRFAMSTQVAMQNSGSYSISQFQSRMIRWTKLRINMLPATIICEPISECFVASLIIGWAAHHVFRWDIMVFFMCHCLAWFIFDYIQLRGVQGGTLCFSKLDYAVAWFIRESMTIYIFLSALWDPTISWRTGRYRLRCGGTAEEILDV
From the text: enzyme inhibition assay, enzyme isolated from HL60 cells on ceramide glucosyltransferase (HL60 glucosyltransferase)

[2] = target: T5, Mouse ER α-glucosidase II (Mus musculus, UniProt Q8BHN3); assay: enzyme inhibition assay, purified enzyme; details: read-out: IC50 ^a / MON-6d-DGJ
T5 construct: gene Ganab; with Glucosidase 2 subunit beta
T5 sequence (Q8BHN3 33-944): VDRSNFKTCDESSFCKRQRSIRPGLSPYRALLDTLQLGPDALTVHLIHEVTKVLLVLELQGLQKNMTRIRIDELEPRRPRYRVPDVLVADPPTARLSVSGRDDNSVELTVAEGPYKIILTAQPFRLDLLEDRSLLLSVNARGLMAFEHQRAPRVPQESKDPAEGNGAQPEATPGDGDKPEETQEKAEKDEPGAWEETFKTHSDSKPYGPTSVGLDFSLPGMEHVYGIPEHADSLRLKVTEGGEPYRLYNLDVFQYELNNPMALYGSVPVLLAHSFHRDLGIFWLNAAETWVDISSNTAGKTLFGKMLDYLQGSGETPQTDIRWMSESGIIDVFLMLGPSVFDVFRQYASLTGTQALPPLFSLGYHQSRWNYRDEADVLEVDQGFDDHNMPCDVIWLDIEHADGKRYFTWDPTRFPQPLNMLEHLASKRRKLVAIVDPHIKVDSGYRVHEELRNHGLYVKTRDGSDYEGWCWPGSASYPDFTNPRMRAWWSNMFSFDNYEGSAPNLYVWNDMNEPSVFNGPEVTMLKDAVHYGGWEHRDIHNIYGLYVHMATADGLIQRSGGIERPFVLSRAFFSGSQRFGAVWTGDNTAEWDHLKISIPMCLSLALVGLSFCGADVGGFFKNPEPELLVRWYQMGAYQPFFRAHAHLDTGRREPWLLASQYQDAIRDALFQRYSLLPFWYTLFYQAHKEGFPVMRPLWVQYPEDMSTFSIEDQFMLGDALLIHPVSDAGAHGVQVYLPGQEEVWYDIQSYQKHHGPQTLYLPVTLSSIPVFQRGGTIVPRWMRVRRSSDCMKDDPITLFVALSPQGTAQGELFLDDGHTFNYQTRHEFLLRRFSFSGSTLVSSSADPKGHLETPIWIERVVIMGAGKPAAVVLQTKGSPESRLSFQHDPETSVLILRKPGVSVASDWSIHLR
T5 sequence (O08795 15-521 partner): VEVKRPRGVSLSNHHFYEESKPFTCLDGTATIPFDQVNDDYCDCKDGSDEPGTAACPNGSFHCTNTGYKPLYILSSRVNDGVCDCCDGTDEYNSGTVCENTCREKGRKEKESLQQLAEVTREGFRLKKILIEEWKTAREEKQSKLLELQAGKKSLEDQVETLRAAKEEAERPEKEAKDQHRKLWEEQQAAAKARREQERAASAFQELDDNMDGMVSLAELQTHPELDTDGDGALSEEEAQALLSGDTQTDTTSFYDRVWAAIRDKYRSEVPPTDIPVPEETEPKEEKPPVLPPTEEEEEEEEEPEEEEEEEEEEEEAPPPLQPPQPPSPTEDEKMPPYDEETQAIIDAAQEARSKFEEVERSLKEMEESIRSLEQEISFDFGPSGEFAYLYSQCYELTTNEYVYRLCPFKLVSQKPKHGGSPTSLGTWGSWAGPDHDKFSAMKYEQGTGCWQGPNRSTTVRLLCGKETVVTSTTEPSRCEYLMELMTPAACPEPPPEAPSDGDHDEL
From the text: enzyme inhibition assay, purified enzyme on Mouse ER α-glucosidase II

[3] = target: T6, Human lysosome (α-glucosidase) (Homo sapiens, UniProt P10253); assay: enzyme inhibition assay; details: read-out: IC50 ^a / MON-6d-DGJ
T6 construct: gene GAA
From the text: enzyme inhibition assay on Human lysosome (α-glucosidase)

[4] = target: T7, Rat intestinal isomaltase (Rattus norvegicus, UniProt P23739); assay: enzyme inhibition assay; details: read-out: IC50 ^a / MON-6d-DGJ
T7 construct: gene Si; native rat intestinal enzyme; isomaltase (N-terminal) subunit of sucrase-isomaltase
T7 sequence (P23739 1-1013 limits assumed): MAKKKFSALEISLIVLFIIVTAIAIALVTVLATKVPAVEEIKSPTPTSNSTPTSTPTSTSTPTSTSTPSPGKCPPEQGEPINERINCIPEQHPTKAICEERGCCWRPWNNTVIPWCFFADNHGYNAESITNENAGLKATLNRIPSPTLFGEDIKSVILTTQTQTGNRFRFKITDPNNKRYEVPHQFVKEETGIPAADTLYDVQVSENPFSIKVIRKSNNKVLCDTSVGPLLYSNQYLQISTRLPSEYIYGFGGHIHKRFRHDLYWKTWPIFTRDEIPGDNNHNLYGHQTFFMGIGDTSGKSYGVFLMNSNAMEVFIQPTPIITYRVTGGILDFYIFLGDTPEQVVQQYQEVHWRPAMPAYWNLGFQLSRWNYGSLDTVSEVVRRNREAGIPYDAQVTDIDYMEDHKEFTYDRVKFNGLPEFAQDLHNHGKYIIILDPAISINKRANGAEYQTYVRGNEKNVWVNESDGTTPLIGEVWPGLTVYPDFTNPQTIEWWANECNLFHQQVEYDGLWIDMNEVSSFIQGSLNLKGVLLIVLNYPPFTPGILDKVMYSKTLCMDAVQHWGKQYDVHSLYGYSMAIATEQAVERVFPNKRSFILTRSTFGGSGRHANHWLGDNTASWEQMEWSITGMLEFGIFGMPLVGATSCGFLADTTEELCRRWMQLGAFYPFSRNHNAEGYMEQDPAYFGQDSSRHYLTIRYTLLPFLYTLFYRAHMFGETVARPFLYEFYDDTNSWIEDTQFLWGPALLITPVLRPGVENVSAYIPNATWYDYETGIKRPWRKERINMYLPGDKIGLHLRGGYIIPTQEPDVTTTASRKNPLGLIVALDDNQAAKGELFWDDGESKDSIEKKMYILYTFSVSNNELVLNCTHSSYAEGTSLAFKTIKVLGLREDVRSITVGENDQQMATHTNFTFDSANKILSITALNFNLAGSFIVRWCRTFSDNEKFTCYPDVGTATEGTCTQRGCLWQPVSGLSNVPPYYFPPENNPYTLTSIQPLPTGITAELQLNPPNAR
From the text: enzyme inhibition assay on Rat intestinal isomaltase

[5] = target: T8, Human lysosome (α-galactosidase) (Homo sapiens, UniProt P06280); assay: enzyme inhibition assay; details: read-out: IC50 ^a / MON-6d-DGJ
T8 construct: gene GLA
T8 sequence (P06280 32-429): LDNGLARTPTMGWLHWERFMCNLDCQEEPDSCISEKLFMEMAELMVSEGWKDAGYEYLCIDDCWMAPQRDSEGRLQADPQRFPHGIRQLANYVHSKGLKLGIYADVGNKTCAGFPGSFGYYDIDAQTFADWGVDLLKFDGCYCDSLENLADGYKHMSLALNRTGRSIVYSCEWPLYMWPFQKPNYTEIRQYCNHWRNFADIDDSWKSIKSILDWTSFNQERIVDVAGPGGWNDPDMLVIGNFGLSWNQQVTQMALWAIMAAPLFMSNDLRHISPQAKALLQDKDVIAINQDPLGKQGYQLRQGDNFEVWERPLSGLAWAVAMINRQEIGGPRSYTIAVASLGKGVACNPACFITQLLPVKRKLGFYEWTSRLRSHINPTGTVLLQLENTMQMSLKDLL
From the text: enzyme inhibition assay on Human lysosome (α-galactosidase)

T1 sequence (P23739 1014-1841 limits assumed): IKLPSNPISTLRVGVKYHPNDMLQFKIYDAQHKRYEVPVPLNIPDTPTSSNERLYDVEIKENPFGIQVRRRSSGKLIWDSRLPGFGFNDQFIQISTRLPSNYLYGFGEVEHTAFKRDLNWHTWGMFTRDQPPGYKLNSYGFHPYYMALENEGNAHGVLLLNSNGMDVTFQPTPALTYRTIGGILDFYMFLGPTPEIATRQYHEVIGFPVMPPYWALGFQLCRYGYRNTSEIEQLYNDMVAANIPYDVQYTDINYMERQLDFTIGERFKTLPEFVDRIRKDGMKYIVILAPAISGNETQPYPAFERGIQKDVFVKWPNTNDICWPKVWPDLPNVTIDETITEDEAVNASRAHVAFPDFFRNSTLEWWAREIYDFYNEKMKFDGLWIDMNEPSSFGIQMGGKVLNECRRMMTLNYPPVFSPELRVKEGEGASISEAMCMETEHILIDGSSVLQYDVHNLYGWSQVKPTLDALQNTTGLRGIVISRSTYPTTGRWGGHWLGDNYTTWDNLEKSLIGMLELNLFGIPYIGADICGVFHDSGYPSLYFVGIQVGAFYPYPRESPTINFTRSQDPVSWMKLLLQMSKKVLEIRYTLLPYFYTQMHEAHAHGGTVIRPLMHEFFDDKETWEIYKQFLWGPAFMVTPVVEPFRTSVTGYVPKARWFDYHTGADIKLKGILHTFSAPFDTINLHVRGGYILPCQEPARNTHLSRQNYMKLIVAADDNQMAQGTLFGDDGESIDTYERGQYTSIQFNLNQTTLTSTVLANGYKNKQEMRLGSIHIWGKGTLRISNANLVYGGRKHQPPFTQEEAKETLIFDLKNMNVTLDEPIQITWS

IC50 (Rat intestinal sucrase): > 1050 µM
IC50 (Mouse ER α-glucosidase I): > 1050 µM
IC50 (Rat intestinal maltase): > 1050 µM
IC50 [1]: 88.3 µM
IC50 [2]: > 1050 µM
IC50 [3]: > 1050 µM
IC50 [4]: > 1050 µM
IC50 [5]: 256 µM
SMILES: COCCCCCCCCCN1C[C@H](O)[C@@H](O)[C@@H](O)[C@H]1C [MON-6d-DGJ, N-(9′-methoxynonyl)-1,6-dideoxygalactonojirimycin]

Source: article PMC5064435, “Inhibition of endoplasmic reticulum glucosidases is required for in vitro and in vivo dengue antiviral activity by the iminosugar UV-4” (Antiviral Research, 2016)
